Measured values reported in ChEMBL document CHEMBL5325512, “Sub-stoichiometric Modulation of Viral Targets-Potent Antiviral Agents That Exploit Target Vulnerability” (ACS Med Chem Lett, 2023).

Assays:
[1] = test system: Human immunodeficiency virus 1; assay: Antiviral activity against HIV 1 harbouring V362I/V370 mutant; assay type: functional, organism-based
[2] = test system: Human immunodeficiency virus 1; assay: Antiviral activity against HIV 1 harbouring deltaV370 mutant; assay type: functional, organism-based
[3] = test system: Human immunodeficiency virus 1; assay: Antiviral activity against wild type HIV 1 in presence of human serum albumin; assay type: functional, organism-based
[4] = test system: Human immunodeficiency virus 1; assay: Antiviral activity against wild type HIV 1 NL4-3; assay type: functional, organism-based; settings: Human immunodeficiency virus 1, NL4-3
[5] = test system: Human immunodeficiency virus 1; assay: Antiviral activity against HIV1 harbouring T332S/V362I/prR41G mutant; assay type: functional, organism-based
[6] = test system: Human immunodeficiency virus 1; assay: Binding affinity to HIV1 Gag V370A/deltaT371 mutant assessed as dissociation half life
[7] = test system: Gag-Pol polyprotein (Human immunodeficiency virus type 1 group M subtype B (isolate HXB2)(HIV-1)), P04585 [V370A]; assay: Binding affinity to HIV1 Gag V370A mutant assessed as dissociation half life; settings: Human immunodeficiency virus 1
[8] = Selectivity ratio of EC50 for antiviral activity against HIV1 harbouring V370A mutant to EC50 for antiviral activity against wild type HIV1; assay type: functional, Human immunodeficiency virus 1
[9] = test system: Gag-Pol polyprotein (Human immunodeficiency virus type 1 group M subtype B (isolate HXB2)(HIV-1)), P04585 [A364V]; assay: Binding affinity to HIV1 Gag A364V mutant assessed as dissociation half life; settings: Human immunodeficiency virus 1
[10] = test system: Human immunodeficiency virus 1; assay: Antiviral activity against HIV1 infected in human assessed as reduction in Plasma viremia by measuring HIV1 RNA at 80 mg/kg after 7 days; assay type: functional; settings: time 7 day
[11] = test system: Human immunodeficiency virus 1; assay: Antiviral activity against HIV 1 harbouring A362T/V362I/V370 mutant; assay type: functional, organism-based
[12] = Selectivity ratio of EC50 for antiviral activity against HIV1 harbouring deltaV370A mutant to EC50 for antiviral activity against wild type HIV1; assay type: functional, Human immunodeficiency virus 1
[13] = test system: Human immunodeficiency virus 1; assay: Antiviral activity against HIV 1 harbouring R361K/V362I/L363M mutant; assay type: functional, organism-based
[14] = test system: Human immunodeficiency virus 1; assay: Antiviral activity against HIV1 infected in human assessed as reduction in Plasma viremia by measuring HIV1 RNA at 140 mg/kg after 7 days; assay type: functional; settings: time 7 day
[15] = test system: Human immunodeficiency virus 1; assay: Antiviral activity against HIV 1 harbouring A364V mutant; assay type: functional, organism-based
[16] = test system: Human immunodeficiency virus 1; assay: Antiviral activity against HIV 1 harbouring V370A mutant; assay type: functional, organism-based
[17] = test system: Human immunodeficiency virus 1; assay: Antiviral activity against HIV1 infected in human assessed as reduction in Plasma viremia by measuring HIV1 RNA at 10 mg/kg after 10 days; assay type: functional; settings: time 10 day
[18] = Selectivity ratio of EC50 for antiviral activity against HIV1 harbouring T332S/V362I/prR41G mutant to EC50 for antiviral activity wild type HIV1; assay type: functional, Human immunodeficiency virus 1
[19] = test system: Human immunodeficiency virus 1; assay: Binding affinity to HIV1 Gag deltaV370A mutant assessed as dissociation half life
[20] = test system: Human immunodeficiency virus 1; assay: Antiviral activity against HIV1 infected in human assessed as reduction in Plasma viremia by measuring HIV1 RNA at 200 mg/kg after 10 days; assay type: functional; settings: time 10 day
[21] = Selectivity ratio of EC50 for antiviral activity against HIV1 harbouring A364V mutant to EC50 for antiviral activity wild type HIV1; assay type: functional, Human immunodeficiency virus 1
[22] = test system: Gag-Pol polyprotein (Human immunodeficiency virus type 1 group M subtype B (isolate HXB2)(HIV-1)), P04585 [V362I]; assay: Binding affinity to HIV1 Gag V362I mutant assessed as dissociation half life; settings: Human immunodeficiency virus 1
[23] = Selectivity ratio of EC50 for antiviral activity against HIV1 harbouring V362I/V370A mutant to EC50 for antiviral activity against wild type HIV1; assay type: functional, Human immunodeficiency virus 1
[24] = test system: Human immunodeficiency virus 1; assay: Binding affinity to HIV1 Gag V362I/V370A mutant assessed as dissociation half life
[25] = test system: Human immunodeficiency virus 1; assay: Antiviral activity against wild type HIV 1; assay type: functional, organism-based
[26] = Selectivity ratio of EC50 for antiviral activity against HIV1 harbouring R361K/V362I/L363M mutant to EC50 for antiviral activity wild type HIV1; assay type: functional, Human immunodeficiency virus 1
[27] = biological target: Human immunodeficiency virus type 1 Gag protein (Human immunodeficiency virus 1) (UniProt Q77YG1); assay: Binding affinity to HIV1 wild type Gag assessed as dissociation half life
[28] = Selectivity ratio of EC50 for antiviral activity against HIV1 harbouring A362T/V362I/V370A mutant to EC50 for antiviral activity wild type HIV1; assay type: functional, Human immunodeficiency virus 1
[29] = test system: Human immunodeficiency virus 1; assay: Antiviral activity against HIV1 infected in human assessed as reduction in Plasma viremia by measuring HIV1 RNA at 40 mg/kg after 7 days; assay type: functional; settings: time 7 day

Compound | EC50 [1] [nM] | EC50 [2] [nM] | EC50 [3] [nM] | EC50 [4] [nM] | EC50 [5] [nM] | T1/2 [6] [h] | Ratio EC50 [8] | T1/2 [9] [min] | EC50 [11] [nM] | Ratio EC50 [12] | EC50 [13] [nM] | EC50 [15] [nM] | EC50 [16] [nM] | Ratio EC50 [18] | T1/2 [19] [h] | Ratio EC50 [21] | Ratio EC50 [23] | T1/2 [24] [h] | EC50 [25] [nM] | Ratio EC50 [26] | other results
C=C(C)[C@@H]1CC[C@]2(NCCN3CCS(=O)(=O)CC3)CC[C@]3(C)[C@H](CC[C@@H]4[C@@]5(C)CC=C(C6=CC[C@@H](C(=O)O)CC6)C(C)(C)[C@@H]5CC[C@]43C)[C@@H]12 | 15 | 3 | 5 | 3 | 19 | – | – | – | – | – | – | – | – | – | – | – | – | – | – | – | –
C=C(C)[C@@H]1CC[C@]2(NCCN3CCS(=O)(=O)CC3)CC[C@]3(C)[C@H](CC[C@@H]4[C@@]5(C)CC=C(C6=CC[C@@](CF)(C(=O)O)CC6)C(C)(C)[C@@H]5CC[C@]43C)[C@@H]12 [FIPRAVIRIMAT] | 3 | 3 | – | – | 7 | 7.65 | 0.7 | < 1 | 26 | 1 | 3 | 274 | 2 | 2.3 | 5.25 | 91 | 1 | 3.78 | 3 | 1 | T1/2 [7]: 7.23 h; Activity [10]: -1; Activity [14]: -1.5; Activity [17]: -0.4; Activity [20]: -2; T1/2 [22]: 4.48 h; T1/2 [27]: 6.02 h; Ratio EC50 [28]: 8.7; Activity [29]: -1.2
C=C(C)[C@@H]1CC[C@]2(NCCN3CCS(=O)(=O)CC3)CC[C@]3(C)[C@H](CC[C@@H]4[C@@]5(C)CC=C(C6=CCC(C(=O)O)CC6)C(C)(C)[C@@H]5CC[C@]43C)[C@@H]12 (stereo partly specified) | – | 2 | 9 | 0.6 | – | – | – | – | – | – | – | – | 0.7 | – | – | – | – | – | – | – | –
C=C(C)[C@@H]1CC[C@]2(NCCN3CCS(=O)(=O)CC3)CC[C@]3(C)[C@H](CC[C@@H]4[C@@]5(C)CC=C(c6ccc(C(=O)O)cc6)C(C)(C)[C@@H]5CC[C@]43C)[C@@H]12 [BMS-955176] | > 3000 | 6 | – | – | 704 | 0.8 | 1.2 | < 1 | > 3000 | 1.2 | 552 | > 3000 | 6 | 141 | 0.767 | >600 | >600 | 0.583 | 5 | 110 | T1/2 [27]: 0.85 h; Ratio EC50 [28]: >600
